The results in this text go back to patent US20240368135A1 (VERTEX PHARMACEUTICALS INCORPORATED, priority 2021, published 2024).

pIC50: −log10 of the molar value. Bounds are passed on as bounds.

The experiment has as its target human NaV 1.8 (Homo sapiens, UniProt Q9Y5Y9). The experiment can be described thus: E-VIPR assay detecting and measuring NaV inhibition properties. The format is cell-based. Conditions: HEK cells expressing truncated human NaV 1.8; no human serum; read-out: IC50 in the E-VIPR Assay. The essentials:
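HEK cells expressing truncated, fully active human NaV1.8, with KIR2.1 BacMam co-transduction, were loaded with CC2-DMPE/DiSBAC6(3) voltage-sensing dyes for 20 min at room temperature. Compounds were tested in 11-point 3-fold dilutions (300 nM top final), optionally with 25% human serum, under electrical stimulation with FRET read-out.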

Sequence of human NaV 1.8 (Q9Y5Y9 126-399 limits assumed): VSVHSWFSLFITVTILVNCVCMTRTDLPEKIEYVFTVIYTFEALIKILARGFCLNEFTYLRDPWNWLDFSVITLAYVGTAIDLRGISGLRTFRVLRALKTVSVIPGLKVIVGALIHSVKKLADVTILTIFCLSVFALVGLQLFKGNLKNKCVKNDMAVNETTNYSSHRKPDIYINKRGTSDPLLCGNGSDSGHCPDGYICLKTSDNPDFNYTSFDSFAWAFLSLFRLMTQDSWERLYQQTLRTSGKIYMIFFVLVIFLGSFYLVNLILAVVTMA
Sequence of human NaV 1.8 (Q9Y5Y9 660-890 limits assumed): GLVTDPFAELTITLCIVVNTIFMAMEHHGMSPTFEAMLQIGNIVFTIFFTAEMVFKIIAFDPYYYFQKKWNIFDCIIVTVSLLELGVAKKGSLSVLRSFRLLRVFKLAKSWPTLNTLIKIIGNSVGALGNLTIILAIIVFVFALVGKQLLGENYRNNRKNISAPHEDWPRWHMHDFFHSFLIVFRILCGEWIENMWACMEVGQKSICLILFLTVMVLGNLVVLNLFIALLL
Sequence of human NaV 1.8 (Q9Y5Y9 1148-1722 limits assumed): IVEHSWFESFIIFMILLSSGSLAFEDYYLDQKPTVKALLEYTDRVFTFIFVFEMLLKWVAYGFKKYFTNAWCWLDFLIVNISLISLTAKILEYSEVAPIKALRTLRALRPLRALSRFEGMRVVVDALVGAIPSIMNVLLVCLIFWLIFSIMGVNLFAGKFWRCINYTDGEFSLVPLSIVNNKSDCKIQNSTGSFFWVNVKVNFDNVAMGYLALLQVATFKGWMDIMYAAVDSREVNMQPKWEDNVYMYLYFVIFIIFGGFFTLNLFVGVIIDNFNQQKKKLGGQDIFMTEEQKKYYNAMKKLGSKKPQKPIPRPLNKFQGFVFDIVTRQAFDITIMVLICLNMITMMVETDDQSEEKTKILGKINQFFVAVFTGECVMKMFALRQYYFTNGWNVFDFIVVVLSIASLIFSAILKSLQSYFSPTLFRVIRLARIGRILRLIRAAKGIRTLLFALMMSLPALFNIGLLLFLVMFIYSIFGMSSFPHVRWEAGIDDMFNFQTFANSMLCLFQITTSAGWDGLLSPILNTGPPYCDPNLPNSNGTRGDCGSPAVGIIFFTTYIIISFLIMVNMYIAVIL

As to `COc1c([C@H]2[C@H](C(=O)Nc3ccnc(N4C(=O)[C@H]5C[C@@H]4CN5)c3)O[C@@](C)(C(F)(F)F)[C@H]2C)ccc(F)c1F` [Compound 482, (2R,3S,4S,5R)-3-(3,4-difluoro-2-methoxyphenyl)-4,5-dimethyl-N-(2-((1R,4R)-3-oxo-2,5-diazabicyclo[2.2.1]heptan-2-yl)pyridin-4-yl)-5-(trifluoromethyl)tetrahydrofuran-2-carboxamide], the pIC50 (as a rule, −log10 of the IC50, conventionally taken in molar units) is 7.00 to 8.00.

On to `COc1c([C@H]2[C@H](C(=O)Nc3ccnc(N4CCC[C@@H]4CO)c3)O[C@@](C)(C(F)(F)F)[C@H]2C)ccc(F)c1F` [Compound 520, (2R,3S,4S,5R)-3-(3,4-difluoro-2-methoxy-phenyl)-N-[2-[(2R)-2-(hydroxymethyl)pyrrolidin-1-yl]-4-pyridyl]-4,5-dimethyl-5-(trifluoromethyl)tetrahydrofuran-2-carboxamide], for which the pIC50 was 7.00 to 8.00.

For `COc1c([C@H]2[C@H](C(=O)Nc3cnc4c(c3)OCC4O)O[C@@](C)(C(F)(F)F)[C@H]2C)ccc(F)c1F` (single isomer, unassigned) [Compound 409, rel-(2R*,3S*,4S*,5R*)-3-(3,4-difluoro-2-methoxyphenyl)-N-(3-hydroxy-2,3-dihydrofuro[3,2-b]pyridin-6-yl)-4,5-dimethyl-5-(trifluoromethyl)-tetrahydrofuran-2-carboxamide], the pIC50 is 6.00 to 7.00.

As for `C[C@@H]1[C@H](c2ccc(F)c(F)c2OC(F)F)[C@@H](C(=O)Nc2ccn(C)c(=O)c2)O[C@]1(C)C(F)(F)F` (single isomer, unassigned) [Compound 77], the pIC50 is no more than 6.00.

Regarding `COc1c([C@H]2[C@H](C(=O)Nc3cc(CO)ncn3)O[C@@](C)(C(F)(F)F)[C@H]2C)ccc(F)c1F` [Compound 246, (2R,3S,4S,5R)-3-(3,4-difluoro-2-methoxyphenyl)-N-(6-(hydroxymethyl)pyrimidin-4-yl)-4,5-dimethyl-5-(trifluoromethyl)tetrahydrofuran-2-carboxamide], the pIC50 is greater than 8.00.

On to `COc1c([C@H]2[C@H](C(=O)Nc3ccc4nc(C(N)=O)nn4c3)O[C@@](C)(C(F)(F)F)[C@H]2C)ccc(F)c1F` [Compound 16], for which the pIC50 was 7.00 to 8.00.

For `Cc1nn(C(F)F)cc1NC(=O)[C@@H]1O[C@@](C)(C(F)(F)F)[C@@H](C)[C@H]1c1ccc(F)c(F)c1C(C)O` (relative stereo) [Compound 680, rac-(2R*,3S*,4S*,5R*)-3-(3,4-difluoro-2-(1-hydroxyethyl)phenyl)-N-(1-(difluoromethyl)-3-methyl-1H-pyrazol-4-yl)-4,5-dimethyl-5-(trifluoromethyl)tetrahydrofuran-2-carboxamide], the negative-log IC50 (pIC50) was 7.00 to 8.00.

For the compound `COc1c([C@H]2[C@H](C(=O)NC3(c4ccccc4)COC3)O[C@@](C)(C(F)(F)F)[C@H]2C)ccc(F)c1F` [Compound 306, (2R,3S,4S,5R)-3-(3,4-difluoro-2-methoxyphenyl)-4,5-dimethyl-N-(3-phenyloxetan-3-yl)-5-(trifluoromethyl)tetrahydrofuran-2-carboxamide], the negative logarithm of the IC50 (pIC50) was no more than 6.00.

As to `COc1c([C@H]2[C@H](C(=O)Nc3ccnc(S(N)(=O)=O)c3)O[C@@](C)(C(F)(F)F)[C@H]2C)ccc(F)c1F` [Compound 188, (2R,3S,4S,5R)-3-(3,4-difluoro-2-methoxyphenyl)-4,5-dimethyl-N-(2-sulfamoylpyridin-4-yl)-5-(trifluoromethyl)tetrahydrofuran-2-carboxamide], the negative logarithm of the IC50 (pIC50) was greater than 8.00.

With `COc1c([C@@H]2[C@@H](C(=O)Nc3ccnc(S(=O)(=O)N(C)C)c3)O[C@](C)(C(F)(F)F)[C@@H]2C)ccc(F)c1F` (stereo in doubt) [Compound 448, rel-(2S,3R,4R,5S)-3-(3,4-difluoro-2-methoxyphenyl)-N-(2-(N,N-dimethylsulfamoyl)pyridin-4-yl)-4,5-dimethyl-5-(trifluoromethyl)tetrahydrofuran-2-carboxamide], the pIC50 is no more than 6.00.
